{
  "source": "patent US20250215091A1",
  "about": "“Anti-GAL3 Antibodies and Compositions” (Les Laboratoires Servier, priority 2022, published 2025)",
  "assay_type_in_all_cases": "in vivo, mice",
  "key": {"[1]": {"system": "murine model of HOCI-induced fibrosis", "assay": "HOCI-induced murine fibrosis model: skin thickness", "conditions": "first experiment, 42 days; antibody 20 mg/kg s.c.; TD139 0.5 mg/kg intratracheal; vs HOCI group; FIG. 7A", "experimental": "(§1) In a first experiment, control mice (n=12) received a daily intradermal injection of 300 μL of sterile phosphate buffer saline (PBS) for 5 consecutive days per week, for a duration of 42 days. HOCI alone and HOCI with antibody (HOCI-antibody) treated mice (n=12 per group) received a daily intradermal injection of 300 μL of HOCI for 5 consecutive days per week, for a duration of 42 days. Antibody-treated mice also received a subcutaneous injection of 20 mg/kg antibody, starting at day minus one and every 5 days between day 5 and day 40. Each antibody was solubilized in sterile, endotoxin-free PBS before injection. In a second experiment, the same protocol was applied, except that duration of the study was 63 days and antibodies were given every 7 days starting at day minus 1 until day 62.\n(§2) Mice that received daily injection of HOCI were also treated by intratracheal instillation of 0.5 mg/kg of TD139 compound (HOCI-TD139), a small molecule Gal3 inhibitor. In a first experiment, the administrations started from day 21 and the compound was given every 3 days until day 39. In a second experiment, the administrations started from day 20 and the compound was given every 3 days until day 62. TD139 was initially dissolved in 100% DMSO then diluted 50-fold in endotoxin-free PBS before administration.\nThe evolution of skin thickness was monitored by using an external caliper, every seven days until sacrifice."}, "[2]": {"system": "murine model of HOCI-induced fibrosis", "assay": "HOCI-induced murine fibrosis model: skin and lung collagen (Picrosirius red)", "conditions": "first experiment", "experimental": "as §1, §2\nAt the day of study termination of the first experiment (day 42), skin and lung samples were taken, formalin-fixed and processed to individual paraffin wax blocks. Sections of skin and lung were cut from the blocks and, after rehydration, stained with Picrosirius Red coloration according to the manufacturer's protocol. Subsequently, each slide was examined and remotely analyzed employing the web-based Image J software"}, "plasma IL-6": {"system": "plasma IL-6", "assay": "HOCI-induced murine fibrosis model: plasma IL-6 (MSD)", "conditions": "first experiment, day 42; vs HOCI group; FIG. 9", "experimental": "as §1, §2\n(§3) In the first experiment, a mixed effect model with repeated measurements was performed on Control group, HOCI treated group, HOCI-antibody- and HOCI-TD139-treated groups. The impact of HOCI administration on plasma IL-6 and IL-5 levels was evaluated compared to the control group. The impact of antibody and TD139 treatments was compared to the HOCI group (FIG. 9). IL-6 and IL-5 were quantified by using the MSD technology from Mesoscale."}, "plasma IL-5": {"system": "plasma IL-5", "assay": "HOCI-induced murine fibrosis model: plasma IL-5 (MSD)", "conditions": "first experiment, day 42; vs HOCI group; FIG. 9", "experimental": "as §1, §2, §3"}, "plasma Gal3": {"system": "plasma Gal3", "assay": "HOCI-induced murine fibrosis model: plasma Gal3 (ELISA)", "conditions": "first experiment, day 42; FIG. 10", "experimental": "as §1, §2\nIn the first experiment, the plasma levels of Gal3 were measured at day minus 1 (before antibody administration) and at termination day (day 42) using a mouse Galectin-3 DuoSet ELISA kit (R&D Systems, DY1197) according to the manufacturer's instructions. Plasma samples were diluted 1:200 in order to fit with the dynamic range of the assay."}, "[3]": {"system": "genes differentially regulated between HOCI group and control group in whole blood cells", "assay": "HOCI-induced murine fibrosis model: whole blood RNA sequencing", "conditions": "of 510 genes differentially regulated HOCI vs control; day 42, whole blood", "experimental": "as §1, §2\nIn the first experiment, global gene expression was examined at day 42 in whole blood cells by RNA sequencing.\nWhole blood was collected in RNA protect tubes (Qiagen) and were processed for RNA extraction using the RNeasy Protect Animal blood kit with the optional on-column DNAse I digestion. Total RNA samples were quantified on Nanodrop 2000 (ThermoFisher Scientific™) and analyzed on Bioanalyzer (Agilent) using RNA 6000 Nano chips to determine RNA quality (RIN). Total RNA matching the QC criteria were included in the study. Purified RNA samples were used as input for the TruSeq Strand-specific RNA-seq (poly A selection and globin depletion) according to manufacturer's protocol (Illumina). […]\nRaw reads were processed using the in-house RNAExp Expression pipeline 2.1 and the quality was assessed using FastQC tools. Then, reads were trimmed for adaptors using Cutadapt and trimmed reads were aligned to mouse mm39 reference genome using the STAR aligner. Aligned data were evaluated for quality using Samtools and Picard tools. Then, aligned reads per gene were quantified using FeatureCount. […] Read count were normalized by the variance stabilizing transformation vst function from DESeq2 R package.\n55,416 genes were detected in the data. […] Genes differentially expressed between groups were determined using a linear model (ImFit function from limma R package) on vst transformation gene expression dataset. […]"}, "[4]": {"system": "murine model of bleomycin-induced fibrosis", "assay": "Bleomycin-induced murine lung fibrosis model: body weight and body weight metrics", "experimental": "(§4) Control bleomycin mice named ‘Bleo’ received an administration of 1.65 mg/kg bleomycin by the oropharyngeal route on Day 1. […] Antibody-treated mice also received an administration of 1.65 mg/kg bleomycin by the oropharyngeal route on Day 1 and a subcutaneous injection of 20 mg/kg antibody, starting on day minus one and on days 4, 8, 12, 16 and 20. Each antibody was solubilized in sterile, endotoxin-free PBS before injection. Mice that received bleomycin were also treated by oropharyngeal administration of 0.5 mg/kg of TD139 compound (Bleo-TD139), a small molecule Gal3 inhibitor, starting on day 12 and every 2 days until day 20. TD139 was initially dissolved in 100% DMSO.\nMice were weighed daily. Their growth curves are represented on FIG. 12. Control mice had normal growth with a mean percent increase of 6.4% of their initial body weight measured on day minus 1.\nBody weight metrics were assessed by using two parameters called Time to weight growth (TWG) and Time to baseline (TTB), shown on FIG. 13. Time to weight growth corresponds to the point of inflection when mice show an ascending growth curve and start to regain weight within the course of the experiment. Time to baseline corresponds to the number of days required for mice to recover their initial body weight (day minus 1). The median TWG was 10 days for the untreated bleomycin group. […] TD139 compound had no efficacy on this parameter (p-value 0.53)."}, "[5]": {"system": "murine model of bleomycin-induced fibrosis", "assay": "Bleomycin-induced murine lung fibrosis model: Modified Ashcroft fibrosis score", "experimental": "as §4\nMice were submitted for terminal euthanasia on day 21. The lungs were collected for histopathological examination and gravity inflation-fixed with 10% neutral buffered formalin (NBF) before being immersion fixed in NBF.\nSections were taken and then placed on three slides as indicated by the code numbers on FIG. 14.\nThree longitudinal sections parallel to and bisecting the main stem bronchus were trimmed from the left lung and right caudal lung lobes and mounted in cassettes 01 and 02, respectively. The right cranial, middle and accessory lung lobes were sectioned longitudinally and mounted in cassette 03. All sections were stained with picrosirius red and scored in a blinded manner by a certified veterinary pathologist using the Modified Ashcroft fibrosis score (0-8), where “0” corresponds to “normality (no fibrosis) and “8” corresponds to the highest possible fibrosis score, as described by Hübner et al. (2008) but based on assessment across the whole section of lung."}},
  "data": [
    {"smiles": "OC[C@H]1O[C@@H](S[C@@H]2O[C@H](CO)[C@H](O)[C@H](n3cc(-c4cccc(F)c4)nn3)[C@H]2O)[C@H](O)[C@@H](n2cc(-c3cccc(F)c3)nn2)[C@H]1O", "note": "[TD139, reference compound]", "values": [
      {"measurement": "HOCI-induced increase in skin thickness", "setting": "[1]", "result": "lower decrease in skin thickness than with either antibody, reaching statistical significance only at days 28 and 42"},
      {"measurement": "lung collagen levels", "setting": "[2]; day 42, FIG. 8A", "result": "restored lung collagen levels to those of control mice"},
      {"measurement": "skin collagen levels", "setting": "[2]; day 42, vs HOCI group, FIG. 8B", "result": "significantly reduced"},
      {"measurement": "plasma IL-6 levels", "setting": "plasma IL-6", "result": "no activity"},
      {"measurement": "plasma IL-5 levels", "setting": "plasma IL-5", "result": "decreased significantly"},
      {"measurement": "plasma Gal3 levels", "setting": "plasma Gal3", "result": "restored the plasma Gal3 levels to values similar to those of the control group"},
      {"measurement": "number of HOCI-dysregulated genes counteracted by treatment", "setting": "[3]", "result": 7, "unit": "genes"},
      {"measurement": "percentage of HOCI-dysregulated genes counteracted by treatment", "setting": "[3]", "result": 1.37, "unit": "%"},
      {"measurement": "reduction of median Time to baseline (TTB)", "setting": "[4]; median TTB 20 days for untreated bleomycin group, FIG. 13", "result": "no efficacy"},
      {"measurement": "reduction of median Time to weight growth (TWG)", "setting": "[4]; median TWG 10 days for untreated bleomycin group, FIG. 13", "result": "no efficacy"},
      {"measurement": "mean percent weight increase on day 21 compared to day minus 1", "setting": "[4]; untreated bleomycin group +1.9%, control mice 6.4%", "result": 2.9, "unit": "%"},
      {"measurement": "mice having a lung fibrosis score of 2 and 3", "setting": "[5]; day 21", "result": 50.6, "unit": "%"},
      {"measurement": "mice having a lung fibrosis score of 4 and 5", "setting": "[5]; day 21, 49.3% for untreated bleomycin group", "result": 49.4, "unit": "%"},
      {"measurement": "attenuation of lung fibrosis (overall)", "setting": "[5]; day 21, FIG. 15", "result": "did not show any sign of anti-fibrotic efficacy"}
    ]}
  ]
}
